# From patent US20230372382A1, “USE OF ADENOSINE DIPHOSPHATE RIBOSE FOR ADJUVANT THERAPY WITH RADIATION AND/OR ANTI-CANCER TREATMENT” (PearlsInMires Co., Ltd., priority 2021, published 2023)
# Key:
# [1] = system: Pancreatic cancer (AsPC-1) cells; assay: Cell death by combination treatment with anti-cancer drug (MTT); type: cell-based; settings: Homo sapiens, ASPC1, 24 h
# Procedure: 3×10^3 Brain cancer (U-87MG), lung cancer (H1975), pancreatic cancer (Aspc-1), liver cancer (Hep G2), breast cancer (MDA-MB-231), and colon cancer (HCT116) cells were cultured in a 96-well plate for 24 hours under conditions of 37° C. and 5% Ca2, respectively. […] After the treatment was terminated, the cells were cultured for 24 hours under conditions of 37° C. and 5% CO2 again, 10 μl of 3-(4,5-dimethylthiazol-2-yl)-2,5-diphenyltetrazolium bromide reagent was added to each well and reacted for 1 hour. After the reaction was completed, the reagent was removed, 200 μl of dimethyl sulfoxide was added to each well, and the absorbance was measured to compare the degree of cell death.
# Then, 10 μl of 3-(4,5-dimethylthiazol-2-yl)-2,5-diphenyltetrazolium bromide reagent was added to each well and reacted for 1 hour. After the reaction was completed, the reagent was removed, 200 μl of dimethyl sulfoxide was added to each well, and the absorbance was measured to confirm cell viability.
# [2] = system: Caki-1 cells; assay: Change over time in intracellular ADP-ribose, radiation versus ADP-ribose treatment (ELISA); type: cell-based; settings: Caki-1, 16 μM ADP-ribose, even after 24 hours; after radiation back to untreated level from 8 hours
# Procedure: Brain cancer (U-87MG), kidney cancer (Caki-1), pancreatic cancer (AsPC-1), or breast cancer (MDA-MB-231) cells were cultured in a 6-well plate, respectively, and the cells were divided into the untreated group, the radiation-treated group, and the ADP-ribose-treated group. Irradiation was performed using an X-Rad 320 irradiator (Precision X-ray, North Branford, CT, USA), and cancer cells were treated with a total of 1, 2, and 5 Gy at a dose rate of 300 kVp and 150 cGy/min using an X-ray beam filter composed of 12.5 mA and 2.0 mm Al, respectively. Before treatment and at 4, 8, 16, and 24 hours after treatment, the medium was removed, the cells were washed with phosphate-buffered saline, and then RIPA buffer was added and the products were left on ice for 20 minutes. After scraping the cells, the cells were put in a centrifuge tube and centrifuged for 10 minutes at 10,000 g and 4° C. The supernatant was obtained, and 1% SDS was added, and then the reaction product was boiled at 100° C. for 5 minutes and cooled on ice. The supernatant was centrifuged again at 10,000 g and 4° C. for 10 minutes to obtain the final supernatant, and ADP-ribose was quantitatively analyzed using an ELISA analysis kit (Cell Biolabs, Inc., San Diego, CA, USA). […]
# [3] = system: U-87MG cells; assay: Cell death by combination treatment of ADP-ribose and radiation (MTT); type: cell-based; settings: 8 μM ADP-ribose in combination with 2 Gy radiation, 24 hours, P<0.001, 2 Gy alone about 88%
# Procedure: 3×10^3 Brain cancer (U-87MG) cells were cultured in a 96-well plate for 24 hours under conditions of 37° C. and 5% CO2, treated with 8 μM of ADP-ribose and 2 or 5 Gy dose of radiation individually or in combination, and cultured for 24 hours under conditions of 37° C. and 5% CO2 again. Then, 10 μl of 3-(4,5-dimethylthiazol-2-yl)-2,5-diphenyltetrazolium bromide reagent was added to each well and reacted for 1 hour. After the reaction was completed, the reagent was removed, 200 μl of dimethyl sulfoxide was added to each well, and the absorbance was measured to confirm cell viability.
# [4] = system: MDA-MB-231 cells; assay: as above; type: cell-based; settings: MDA-MB-231, 16 μM ADP-ribose in combination with 2 Gy radiation, 24 hours, P<0.001; 2 Gy alone about 90.6%
# Procedure: 3×10^3 Brain cancer (U-87MG), lung cancer (H1975), pancreatic cancer (Aspc-1), liver cancer (Hep G2), breast cancer (MDA-MB-231), colon cancer (HCT116), and kidney cancer (Caki-1) cells were cultured in a 96-well plate for 24 hours under conditions of 37° C. and 5% CO2, treated with ADP-ribose or 2 or 5 Gy radiation alone or in combination with ADP-ribose and 2 Gy radiation, and cultured for 24 hours under conditions of 37° C. and 5% CO2 again. Then, 10 μl of 3-(4,5-dimethylthiazol-2-yl)-2,5-diphenyltetrazolium bromide reagent was added to each well and reacted for 1 hour. After the reaction was completed, the reagent was removed, 200 μl of dimethyl sulfoxide was added to each well, and the absorbance was measured to compare the degree of cell death.
# 3×10^3 MDA-MB-231 cells were cultured in a 96-well plate for 24 hours under conditions of 37° C. and 5% CO2, treated with 16 μM of ADP-ribose and 2 or 5 Gy dose of radiation individually or in combination, and cultured for 24 hours under conditions of 37° C. and 5% CO2 again. Then, 10 μl of 3-(4,5-dimethylthiazol-2-yl)-2,5-diphenyltetrazolium bromide reagent was added to each well and reacted for 1 hour. After the reaction was completed, the reagent was removed, 200 μl of dimethyl sulfoxide was added to each well, and the absorbance was measured to confirm cell viability.
# [5] = system: Pancreatic cancer (AsPC-1) cells; assay: Xenograft model, subcutaneous ADP-ribose, tumor volume; type: in vivo, BALB/c nude mice; settings: AsPC-1 xenograft, 3 times a week, control about 2155.8
# Procedure: Pancreatic cancer (AsPC-1) or kidney cancer (Caki-1) cells (1×10^7 cells) were inoculated into 5-week-old BALB/c nude mice on the back flank, and the mice were grown up to approximately 150 mm^3 of the tumor volume. Then, three concentrations of ADP-ribose were administered subcutaneously, intravenously, and orally 3 times a week. The tumor size was measured every 6 days using a digital caliper, and the changes in tumor volume were compared for each group.
# Pancreatic cancer (AsPC-1) cells (1×10^7) were inoculated into 5-week-old BALB/c nude mice on the back flank, and the mice were divided into four groups: the control group (Control) and groups injected subcutaneously with 2, 20, and 40 mg/kg of ADP-ribose. When the tumors were grown to a volume of approximately 150 mm^3, each concentration of ADP-ribose was subcutaneously injected 3 times a week. The tumor size was measured using a digital caliper, and the results of changes in tumor volume were compared by the group.
# [6] = system: Lung cancer (H1975) cells; assay: Xenograft model, combination with anti-cancer drug, tumor volume; type: in vivo, BALB/c nude mice
# Procedure: Brain (U-87MG), lung (H1975), pancreatic (AsPC-1), or liver (Hep G2) cells (1×10^7 cells) were inoculated into 5-week-old BALB/c nude mice on the back flank, respectively. Then, when tumors were grown to a volume of approximately 150 mm^3, the mice were divided into the control group (control), an anti-cancer drug alone treatment group, and a combination treatment group. […] The tumor size was measured every 6 days using a digital caliper, and the results of changes in tumor volume were compared by the group.
# Lung cancer (H1975) cells (1×10^7) were inoculated into 5-week-old BALB/c nude mice on the back flank, and the mice were divided into three groups: the control group (Control), single oral administration of 1 mg/kg of osimertinib, and combination administration of osimertinib+10 mg/kg of ADP-ribose. When the tumors were grown to a volume of approximately 150 mm^3, osimertinib was administered orally twice a week, and ADP-ribose at 10 mg/kg was injected subcutaneously 3 times a week. The tumor size was measured using a digital caliper, and the results of changes in tumor volume were compared by the group.
# [7] = system: U-87MG cells; assay: Cancer cell death verification (MTT cell viability); type: cell-based
# Procedure: 3×10^3 Brain cancer (U-87MG), lung cancer (H1975), pancreatic cancer (Aspc-1), liver cancer (Hep G2), breast cancer (MDA-MB-231), colon cancer (HCT116), kidney cancer (Caki-1), gastric cancer (SNU-1) and ovarian cancer (OVCAR-3) cells were cultured in a 96-well plate under conditions of 37° C. and 5% CO2 for 24 hours, and then each cancer cell was treated with ADP-ribose at each concentration. After culturing for 24 hours under conditions of 37° C. and 5% CO2 again, 10 μl of 3-(4,5-dimethylthiazol-2-yl)-2,5-diphenyltetrazolium bromide reagent was added to each well and reacted for 1 hour. After the reaction was completed, the reagent was removed, 200 μl of dimethyl sulfoxide was added to each well, and the absorbance was measured to determine the concentration of half-lethality and maximum lethality compared to untreated cells.
# 3×10^3 U-87MG cells were cultured in a 96-well plate for 24 hours under conditions of 37° C. and 5% CO2, treated with ADP-ribose at final concentrations of 0.125, 0.25, 0.5, 1, 2, 4, 8, 16, and 32 μM, respectively, and cultured again for 24 hours under conditions of 37° C. and 5% CO2. Then, 10 μl of 3-(4,5-dimethylthiazol-2-yl)-2,5-diphenyltetrazolium bromide reagent was added to each well and reacted for 1 hour. After the reaction was completed, the reagent was removed, 200 μl of dimethyl sulfoxide was added to each well, and the absorbance was measured to confirm cell viability.
# [8] = system: SNU-1 cells; assay: as above; type: cell-based; settings: SNU-1, 32 μM ADP-ribose, 24 hours
# Procedure: 3×10^3 SNU-1 or OVCAR-3 cells were cultured in a 96-well plate for 24 hours under conditions of 37° C. and 5% CO2, treated with ADP-ribose at concentrations of 32 μM, respectively, and cultured again for 24 hours under conditions of 37° C. and 5% CO2. Then, 10 μl of 3-(4,5-dimethylthiazol-2-yl)-2,5-diphenyltetrazolium bromide reagent was added to each well and reacted for 1 hour. After the reaction was completed, the reagent was removed, 200 μl of dimethyl sulfoxide was added to each well, and the absorbance was measured to confirm cell viability.
# [9] = system: Hep G2 cells; assay: ADP-ribose quantitative analysis (ELISA) in cancer cells; type: cell-based; settings: 8 μM ADP-ribose, 24 hours, P<0.001
# Procedure: After culturing, the culture medium was removed, the cells were washed with phosphate-buffered saline, and then RIPA buffer was added and the cells were left on ice for 20 minutes. After scraping the cells, the cells were put in a centrifuge tube and centrifuged for 10 minutes at 10,000 g and 4° C. The supernatant was obtained, and 1% SDS was added, and then the reaction product was boiled at 100° C. for 5 minutes and cooled on ice. The supernatant was centrifuged again at 10,000 g and 4° C. for 10 minutes to obtain the final supernatant, and ADP-ribose was quantitatively analyzed and compared using an ELISA analysis kit (Cell Biolabs, Inc., San Diego, CA, USA).
# 5×10^5 Hep G2 cells were divided into the untreated group and 8 μM ADP-ribose-treated group and cultured in Eagle's Minimum Essential Medium supplemented with 10% fetal calf serum+100 units/ml penicillin+100 μg/ml streptomycin under conditions of 37° C. and 5% CO2 for 24 hours. The medium of the cultured cells was removed, and the supernatant prepared by treatment with RIPA buffer and 1% sodium dodecyl sulfate (SDS) was used for ELISA analysis to detect and analyze ADP-ribose.
# [10] = ADP-ribose 10 mg/kg s.c. in combination with osimertinib 1 mg/kg, P<0.001
smiles,measurement,setting,value
"Nc1ncnc2c1ncn2[C@@H]1O[C@H](COP(=O)(O)OP(=O)(O)OC[C@H]2O[C@@H](O)C(O)C2O)C(O)C1O (stereo partly drawn) [ADP-ribose, adenosine diphosphate ribose]",viability at 1.6 µM,[1],~1%
same,amount of ADP-ribose in the cells over time compared to the control group,[2],maintained a significant (P<0.001) increase
same,survival rate of cancer cells,[3],about 12.3%
same,survival rate of cancer cells,[4],about 11.3%
same,final tumor volume,[5]; 2 mg/kg subcutaneous,1015.8 mm^3
same,final tumor volume,[5]; 20 mg/kg subcutaneous,496.6 mm^3
same,final tumor volume,[5]; 40 mg/kg subcutaneous,336.2 mm^3
same,reduction of tumor volume compared to the control group,[6]; [10],about 81%
same,reduction of tumor volume compared to the group treated with osimertinib alone,[6]; [10],about 77%
same,final tumor volume,"[6]; ADP-ribose 10 mg/kg subcutaneous 3 times a week in combination with osimertinib 1 mg/kg, control about 2265.5",about 424.7 mm^3
same,IC50,"[7]; Homo sapiens, U-87 MG, 24 h, read-out: half-lethal dose (concentration at which about half of the cells were killed)",~8 µM
same,maximum lethal dose (concentration at which almost all cells were killed),"[7]; U-87MG, 24 hours, MTT",32 µM
same,cancer cell growth under a microscope,"[7]; U-87MG, ADP-ribose treated vs control, FIG. 2A",inhibited from growing and killed
same,cell death compared to the control group,[8],killed significantly
same,amount of ADP-ribose in cells compared to the control group,[9],remarkably increased significantly
